As a reminder, the MIC is the lowest concentration found to suppress growth. A high value points to a less susceptible organism.

These results are taken from publication PMC9241943, “LcCCL28-25, Derived from Piscine Chemokine, Exhibits Antimicrobial Activity against Gram-Negative and Gram-Positive Bacteria In Vitro and In Vivo” (Microbiology Spectrum, 2022).

The test system of assay [1] is Aeromonas hydrophila ATCC 7966. Format: cell-based. Particulars: ATCC 7966, 2 h. Here is the method:
(§1) The MIC assays were performed as previously described ([43]). Briefly, peptides were plated in a 2-fold dilution series (50 μL/well) of Mueller-Hinton broth (MHB) in Costar 96-well cell culture plates (Corning, NY, USA). Three repeats were set for each concentration. E. coli ATCC 25922, A. hydrophila ATCC 7966, P. aeruginosa PAO1, P. aeruginosa FRD1, S. aureus ATCC 25923, S. agalactiae ATCC 13813, S. pneumoniae ATCC 49619, methicillin-resistant S. aureus ATCC 43300, and methicillin-resistant S. aureus USA300 were cultured in Luria-Bertani (LB) medium, while K. pneumoniae CMCC46117 was cultured in tryptic soy broth (TSB) medium. Incubation was done at 37°C and 150 × g for 12 h. Bacteria were transferred to fresh MHB at a ratio of 1% (vol/vol) and incubated to reach a logarithmic growth phase. Then, 50 μL of a bacterial suspension at 4 × 10^6 CFU/mL was added to each well. […]

The test system of assay [2] is Klebsiella pneumoniae CMCC46117. Format: cell-based. Conditions: CMCC46117, 2 h. Here is the method:
as §1

Assay [3] relates to Staphylococcus aureus USA300. Conditions: S. aureus USA300. Here is the method: The MIC assays were performed as previously described ([43]). Briefly, peptides were plated in a 2-fold dilution series (50 μL/well) of Mueller-Hinton broth (MHB) in Costar 96-well cell culture plates (Corning, NY, USA). Three repeats were set for each concentration. E. coli ATCC 25922, A. hydrophila ATCC 7966, P. aeruginosa PAO1, P. aeruginosa FRD1, S. aureus ATCC 25923, S. agalactiae ATCC 13813, S. pneumoniae ATCC 49619, methicillin-resistant S. aureus ATCC 43300, and methicillin-resistant S. aureus USA300 were cultured in Luria-Bertani (LB) medium, while K. pneumoniae CMCC46117 was cultured in tryptic soy broth (TSB) medium. Incubation was done at 37°C and 150 × g for 12 h. Bacteria were transferred to fresh MHB at a ratio of 1% (vol/vol) and incubated to reach a logarithmic growth phase. Then, 50 μL of a bacterial suspension at 4 × 10^6 CFU/mL was added to each well. After incubation at 37°C for 22 ± 2 h, turbidity was measured using an EnSpire multimode plate reader (PerkinElmer, Singapore) at 595 nm.

Assay [4] deals with P. aeruginosa FRD1 biofilm. Description: Biofilm inhibition assay (crystal violet). Conditions: P. aeruginosa FRD1, 6.25 μg/mL (0.5× MIC), 37°C 24 h, triplicate. Format: cell-based, Pseudomonas aeruginosa. Here is the method: (§2) In vitro static biofilm models have been reported in many studies ([45][–][47]). A Pseudomonas aeruginosa mucoid strain, FRD1, isolated from a cystic fibrosis patient, was used for the biofilm inhibition and eradication assay. The FRD1 strain was shock cultured to logarithmic growth stage at 37°C and 150 × g. After cleaning using PBS and centrifuging thrice, the bacteria were resuspended in MHB medium (with 0.2% glucose) and gradient diluted to an OD600 value of ~0.01.
For the biofilm inhibition assay, 90-μL amounts of bacterial suspensions and 10-μL amounts of increasing concentrations of the peptide were added to a 96-well plate and coincubated at 37°C for 24 h. Then, bacterial biofilms were quantified as follows: (i) planktonic bacteria were removed by washing thrice using PBS, (ii) biofilm bacteria were fixed in 100 μL of 4% paraformaldehyde at room temperature for 15 min and (iii) stained with 100 μL of 0.1% crystal violet for 30 min, (iv) the dye was removed, followed by washing twice using PBS, adding 200 μL of 95% ethanol to each well to dissolve the crystal violet, and finally, (v) absorbance was measured at 590 nm using an EnSpire multimode plate reader (PerkinElmer, Singapore).

Assay [5] has as its system P. aeruginosa FRD1 biofilm. The assay can be described thus: Biofilm eradication assay (crystal violet). Format: cell-based, Pseudomonas aeruginosa. Particulars: for biofilm eradication rate: 24-h mature FRD1 biofilm, 2 h. Here is the method: as §2
For the eradication assay, biofilms of the FRD1 strain were grown in a 96-well plate. Briefly, 100-μL amounts of the bacterial suspension were plated and incubated at 37°C for 24 h. Then, wells containing the biofilms were washed thrice using PBS. The peptide was serially diluted in MHB medium (with 0.2% glucose) and added to the 96-well plates (100 μL/well). The plates were incubated for 2 h at 37°C. Finally, bacterial biofilms were quantified as described above for the biofilm inhibition assay.

Assay [6] concerns methicillin-resistant S. aureus standard strain USA300. The assay can be described thus: Neutropenic mouse thigh infection model. Format: in vivo. Particulars: neutropenic BALB/c mice, 300 μg i.p. at 2 h postinfection. Here is the method:
Female BALB/c mice were used to construct a neutropenic murine thigh infection model as previously published ([48][–][50]). Briefly, mice (n = 9/group) were rendered neutropenic by consecutive intraperitoneal injections of 150 and 100 mg/kg of body weight cyclophosphamide at 4 and 1 day before bacterial injection ([51]). An S. aureus USA300 inoculum (~1.5 × 10^6 CFU/mL) was prepared by diluting logarithmic phase bacteria with fresh MHB. Each mouse was infected by intramuscular injection of 0.1 mL of the inoculum (~1.5 × 10^5 CFU) into the right thigh muscles. At 2 h postinfection, 0.1 mL of lcCCL28-25 peptide (300 μg) or vancomycin hydrochloride (300 μg, 15 mg/kg) was administered by intraperitoneal injection. The control group was injected with an equal volume of PBS. Untreated control mice were sacrificed at the start of treatment to establish the baseline bacterial burden. Mice in the three treatment groups (PBS, vancomycin, and lcCCL28-25) were sacrificed at 48 h postinfection. Their right thighs were aseptically harvested, placed in sterile saline and homogenized using a Bioprep-6 homogenizer (Allsheng, Hangzhou, China). After being serially diluted to 1:10 in sterile saline, 100-μL amounts of tissue suspensions at various concentrations were plated on LB agar to determine bacterial counts after incubation at 37°C for 24 h.

Converted amounts (≈) assume the structure as drawn. Residues, ends and D or L forms follow the SMILES beside them.

Regarding `CSCC[C@H](NC(=O)[C@H](Cc1c[nH]c2ccccc12)NC(=O)[C@H](CCCCN)NC(=O)[C@@H]1CCCN1C(=O)[C@H](Cc1c[nH]cn1)NC(=O)[C@H](C)N)C(=O)N[C@@H](CCC(=O)O)C(=O)N[C@H](C(=O)N[C@H](C(=O)N[C@@H](CCCNC(=N)N)C(=O)N[C@@H](CO)C(=O)N[C@@H](CCCNC(=N)N)C(=O)N[C@@H](CCC(N)=O)C(=O)N[C@@H](CCCNC(=N)N)C(=O)N[C@@H](CCCCN)C(=O)N[C@@H](CCCCN)C(=O)N[C@@H](CCCCN)C(=O)N[C@@H](Cc1c[nH]cn1)C(=O)N[C@@H](CC(N)=O)C(=O)N[C@@H](CCCCN)C(=O)N[C@@H](CCCNC(=N)N)C(=O)N[C@@H](CCCNC(=N)N)C(=O)N[C@@H](C)C(=O)N[C@H](C(=O)N[C@@H](Cc1ccc(O)cc1)C(=O)O)[C@@H](C)O)C(C)C)C(C)C` [lcCCL28-25] (H-AHPKWMEVVRSRQRKKKHNKRRATY-OH; N-terminus and C-terminus assumed), the MIC in assay [1] is greater than 50.00 µg/mL; in assay [2] it was 25.00 µg/mL (≈ 7.83 µM). Moreover, the “decrease in antimicrobial activity with CaCl2” value in assay [3] (2.5 mM CaCl2 versus peptide only) is on record as 2 fold. The “decrease in antimicrobial activity with NaCl” value in assay [3] (150 mM NaCl versus peptide only) is 4 fold. In addition, in assay [3] (10% mouse serum), the “reduction of antimicrobial activity under 10% serum” value was 4 fold. The “reduction of antimicrobial activity under 20% serum” value in assay [3] (20% mouse serum) is listed as 8 fold. Besides, the “reduction of antimicrobial activity under 40% serum” value in assay [3] (40% mouse serum) was 32 fold. For the same compound, the “reduction of biofilm formation” value in assay [4] is reported as ~ 64%. Further, the biofilm eradication rate entry in assay [5] (12.5 μg/mL) is given as “more than 80%”; in assay [5] (25 μg/mL), “above 90%”. For the same compound, the “concentration required to eradicate ~50% of biofilm” value in assay [5] (24-h mature P. aeruginosa FRD1 biofilm, 2 h treatment, crystal violet) was found to be 3.13 µg/mL. Further, the “reduction in average bacterial load in thighs versus control group” value in assay [6] (S. aureus USA300 i.m., 48 h postinfection) amounted to 0.86 log10 CFU/g. Also, the “mice that died after 48 h of infection” value in assay [6] (n = 9/group, three died in PBS group) was “one”.
